From PubChem BioAssay AID248 (DTP/NCI, 2004)
Values joined by “and” are separate entries in the source; they are usually repeats but may differ in a detail not shown here. Equal values may be shown once. Inconclusive results and toxic doses are left out. Cut-off read from the data, not from the text of the source: active = T/C of 150% or more; inactive = T/C below 125%.

Tested on: L1210 leukemia ip in BDF1 mice, survival T/C
Test: NCI In Vivo Anticancer Drug Screen. Data for tumor model L1210 Leukemia (intraperitoneal) in B6D2F1 (BDF1) mice
Details: endpoint: mean survival time, higher = longer survival
Method in brief: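 Each compound was tested against a transplantable tumor grown in mice. The endpoint was survival, with treated animals benchmarked against vehicle controls as a simple ratio.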

[1] = dose: 100.0 mg/kg/injection, schedule: Q01DX009 (ip), vehicle: Klucel (hydroxypropylcellulose) (HPC)
[2] = dose: 200.0 mg/kg/injection, schedule: Q01DX009 (ip), vehicle: Klucel (hydroxypropylcellulose) (HPC)
[3] = dose: 400.0 mg/kg/injection, schedule: Q01DX009 (ip), vehicle: Klucel (hydroxypropylcellulose) (HPC)
[4] = dose: 100.0 mg/kg/injection, schedule: Q04DX003 (ip), vehicle: saline with Tween-80
[5] = dose: 100.0 mg/kg/injection, schedule: Q01DX001 (ip), vehicle: carboxymethylcellulose (CMC)
[6] = dose: 200.0 mg/kg/injection, schedule: Q01DX001 (ip), vehicle: carboxymethylcellulose (CMC)
[7] = dose: 400.0 mg/kg/injection, schedule: Q01DX001 (ip), vehicle: carboxymethylcellulose (CMC)
[8] = dose: 100.0 mg/kg/injection, schedule: Q04DX003 (ip), vehicle: Klucel (hydroxypropylcellulose) (HPC)
[9] = dose: 200.0 mg/kg/injection, schedule: Q04DX003 (ip), vehicle: Klucel (hydroxypropylcellulose) (HPC)

Measured: T/C

CCCNC1=C(N2CC2)C(=O)C(NCCC)=C(N2CC2)C1=O
inactive: dose: 0.09 mg/kg/injection, schedule: Q04DX003 (ip), vehicle: saline 96 % of control and 109 % of control | dose: 0.18 mg/kg/injection, schedule: Q04DX003 (ip), vehicle: saline 97 % of control and 106 % of control | dose: 0.37 mg/kg/injection, schedule: Q01DX001 (ip), vehicle: saline 108 % of control | dose: 0.37 mg/kg/injection, schedule: Q04DX003 (ip), vehicle: saline 100 % of control and 103 % of control | dose: 0.39 mg/kg/injection, schedule: Q01DX009 (ip), vehicle: saline 95 % of control and 102 % of control | dose: 0.75 mg/kg/injection, schedule: Q01DX001 (ip), vehicle: saline 108 % of control | dose: 0.75 mg/kg/injection, schedule: Q04DX003 (ip), vehicle: saline 105 % of control and 108 % of control | dose: 0.78 mg/kg/injection, schedule: Q01DX009 (ip), vehicle: saline 107 % of control and 118 % of control | dose: 1.5 mg/kg/injection, schedule: Q01DX001 (ip), vehicle: saline 117 % of control | dose: 1.5 mg/kg/injection, schedule: Q04DX003 (ip), vehicle: saline 100 % of control | dose: 1.56 mg/kg/injection, schedule: Q01DX009 (ip), vehicle: saline 107 % of control and 116 % of control | dose: 1.56 mg/kg/injection, schedule: Q04DX003 (ip), vehicle: saline 103 % of control | dose: 3.0 mg/kg/injection, schedule: Q01DX001 (ip), vehicle: saline 118 % of control | dose: 3.0 mg/kg/injection, schedule: Q04DX003 (ip), vehicle: saline 118 % of control and 120 % of control | dose: 3.12 mg/kg/injection, schedule: Q04DX003 (ip), vehicle: saline 93 % of control | dose: 6.0 mg/kg/injection, schedule: Q01DX001 (ip), vehicle: saline 90 % of control | dose: 6.25 mg/kg/injection, schedule: Q04DX003 (ip), vehicle: saline 98 % of control | dose: 12.0 mg/kg/injection, schedule: Q01DX001 (ip), vehicle: saline 110 % of control | dose: 12.5 mg/kg/injection, schedule: Q04DX003 (ip), vehicle: saline 115 % of control | dose: 25.0 mg/kg/injection, schedule: Q04DX003 (ip), vehicle: saline 113 % of control

CCCCOP(=O)(CSCC)OCCCC
inactive: [1] 98 % of control | [2] 90 % of control | [3] 93 % of control

Oc1ccccc1C=Nc1ccc(Cl)c(Cl)c1
inactive: [1] 93 % of control | [2] 93 % of control | [3] 96 % of control

c1ccc(-c2oc3cc4c(cc3c2-c2ccc(OCCN3CCCC3)cc2)CCC4)cc1
inactive: [4] 90 % of control

COC1(OC)CCC2(C)C(CCCC2OS(=O)(=O)c2ccc(C)cc2)C1 (configuration not stated)
inactive: [5] 97 % of control | [6] 108 % of control | [7] 97 % of control

Nc1nc2c(ncn2-c2ccccc2Cl)c(=O)[nH]1
inactive: dose: 100.0 mg/kg/injection, schedule: Q01DX001 (ip), vehicle: saline with Tween-80 95 % of control | dose: 200.0 mg/kg/injection, schedule: Q01DX001 (ip), vehicle: saline with Tween-80 92 % of control | dose: 400.0 mg/kg/injection, schedule: Q01DX001 (ip), vehicle: saline with Tween-80 100 % of control

N#CC12C(=N)CCC1C1C=CC2C1 (configuration not stated)
inactive: dose: 6.25 mg/kg/injection, schedule: Q01DX009 (ip), vehicle: Klucel (hydroxypropylcellulose) (HPC) 100 % of control | dose: 12.5 mg/kg/injection, schedule: Q01DX009 (ip), vehicle: Klucel (hydroxypropylcellulose) (HPC) 101 % of control | [8] 89 % of control | [9] 93 % of control

CC(C)(SCC(N)C(=O)O)C(N)C(=O)O (configuration not stated)
inactive: dose: 100.0 mg/kg/injection, schedule: Q01DX001 (ip), vehicle: saline 95 % of control | dose: 100.0 mg/kg/injection, schedule: Q01DX009 (ip), vehicle: saline 103 % of control | dose: 200.0 mg/kg/injection, schedule: Q01DX001 (ip), vehicle: saline 90 % of control | dose: 200.0 mg/kg/injection, schedule: Q01DX009 (ip), vehicle: saline 94 % of control | dose: 400.0 mg/kg/injection, schedule: Q01DX001 (ip), vehicle: saline 87 % of control | dose: 400.0 mg/kg/injection, schedule: Q01DX009 (ip), vehicle: saline 102 % of control

O=C(Nc1cccc(C(F)(F)F)c1)N(Cc1ccccc1)Cc1ccccc1
inactive: dose: 100.0 mg/kg/injection, schedule: Q01DX009 (ip), vehicle: gum acacia 108 % of control | dose: 200.0 mg/kg/injection, schedule: Q01DX009 (ip), vehicle: gum acacia 106 % of control | dose: 400.0 mg/kg/injection, schedule: Q01DX009 (ip), vehicle: gum acacia 94 % of control

CCn1cc([N+](=O)[O-])ccc1=O
inactive: [1] 104 % of control | [8] 98 % of control | [2] 101 % of control | [9] 96 % of control | [3] 98 % of control | dose: 400.0 mg/kg/injection, schedule: Q04DX003 (ip), vehicle: Klucel (hydroxypropylcellulose) (HPC) 107 % of control

CC12OC(=O)CC1CC(=O)O2 (configuration not stated)
inactive: dose: 100.0 mg/kg/injection, schedule: Q01DX001 (ip), vehicle: saline sonified 101 % of control | dose: 100.0 mg/kg/injection, schedule: Q01DX009 (ip), vehicle: saline sonified 109 % of control | dose: 200.0 mg/kg/injection, schedule: Q01DX001 (ip), vehicle: saline sonified 95 % of control | dose: 200.0 mg/kg/injection, schedule: Q01DX009 (ip), vehicle: saline sonified 105 % of control | dose: 400.0 mg/kg/injection, schedule: Q01DX001 (ip), vehicle: saline sonified 92 % of control | dose: 400.0 mg/kg/injection, schedule: Q01DX009 (ip), vehicle: saline sonified 102 % of control

NCC(=O)c1ccc(OC(=O)c2ccccc2)cc1
inactive: dose: 100.0 mg/kg/injection, schedule: Q01DX009 (ip), vehicle: saline with Tween-80 92 % of control | [4] 95 % of control | dose: 200.0 mg/kg/injection, schedule: Q01DX009 (ip), vehicle: saline with Tween-80 94 % of control | dose: 200.0 mg/kg/injection, schedule: Q04DX003 (ip), vehicle: saline with Tween-80 95 % of control | dose: 400.0 mg/kg/injection, schedule: Q01DX009 (ip), vehicle: saline with Tween-80 103 % of control | dose: 400.0 mg/kg/injection, schedule: Q04DX003 (ip), vehicle: saline with Tween-80 96 % of control

O=[N+]([O-])c1ccc(N=Cc2ccccc2O)cc1
inactive: dose: 50.0 mg/kg/injection, schedule: Q01DX001 (sc), vehicle: olive oil, sesame oil, peanut oil 98 % of control | dose: 100.0 mg/kg/injection, schedule: Q01DX001 (sc), vehicle: olive oil, sesame oil, peanut oil 98 % of control | dose: 200.0 mg/kg/injection, schedule: Q01DX001 (sc), vehicle: olive oil, sesame oil, peanut oil 98 % of control | dose: 400.0 mg/kg/injection, schedule: Q01DX001 (sc), vehicle: olive oil, sesame oil, peanut oil 108 % of control

c1ccc(CCN(c2ccccc2)c2ccccc2)cc1
inactive: [5] 100 % of control | [6] 103 % of control | [7] 103 % of control

CC(C)(CN=Cc1ccccc1[O-])N=Cc1ccccc1[O-].[O]=[V]
inactive: dose: 50.0 mg/kg/injection, schedule: Q01DX009 (ip), vehicle: saline with Tween-80 98 % of control

COc1cccc(/C(C#N)=C\O)c1
inactive: dose: 100.0 mg/kg/injection, schedule: Q04DX002 (ip), vehicle: saline with Tween-80 104 % of control | dose: 200.0 mg/kg/injection, schedule: Q04DX002 (ip), vehicle: saline with Tween-80 96 % of control

C=CC(C)(C)C(=C)C
inactive: dose: 100.0 mg/kg/injection, schedule: Q04DX003 (ip), vehicle: saline 110 % of control | dose: 200.0 mg/kg/injection, schedule: Q04DX003 (ip), vehicle: saline 108 % of control | dose: 400.0 mg/kg/injection, schedule: Q04DX003 (ip), vehicle: saline 101 % of control
